Experimental data as given in patent US8846363B2, “Compositions of and methods of using sulfatases from Flavobacterium heparinum” (priority 2007, dated 2014).
Entries after “also recorded” stand apart in the source; their conditions may differ.

Key:
[1] = target: T1, Flavobacterium heparinum 6-O-sulfatase (ORF B), recombinant, NH2-terminal truncation lacking signal sequence, SEQ ID NO: 2 (Pedobacter heparinus, UniProt C6Y1N4); experiment: Inhibition of 6-O-sulfatase activity (sulfate, phosphate, chelators); format: biochemical
T1 construct: E. coli BL21(DE3), N-terminal 6xHis removed by thrombin
T1 sequence (C6Y1N4 entry or part of it): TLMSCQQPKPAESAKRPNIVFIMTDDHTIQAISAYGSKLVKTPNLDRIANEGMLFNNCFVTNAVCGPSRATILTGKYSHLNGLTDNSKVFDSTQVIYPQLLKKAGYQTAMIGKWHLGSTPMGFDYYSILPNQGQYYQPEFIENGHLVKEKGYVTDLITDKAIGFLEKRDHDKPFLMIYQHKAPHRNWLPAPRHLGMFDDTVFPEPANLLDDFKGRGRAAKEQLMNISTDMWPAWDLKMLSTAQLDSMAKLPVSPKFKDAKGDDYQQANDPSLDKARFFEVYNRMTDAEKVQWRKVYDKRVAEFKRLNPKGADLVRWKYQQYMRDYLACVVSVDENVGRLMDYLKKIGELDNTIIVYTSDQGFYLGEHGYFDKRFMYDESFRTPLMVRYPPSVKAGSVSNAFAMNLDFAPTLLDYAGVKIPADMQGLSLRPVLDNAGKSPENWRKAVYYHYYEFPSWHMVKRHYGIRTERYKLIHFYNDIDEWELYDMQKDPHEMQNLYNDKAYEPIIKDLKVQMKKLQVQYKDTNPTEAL
Procedure: Results are normalized to 0.0 M NaCl added (which is shown as 100%). 6-O-sulfatase (●); N-sulfamidase (◯). […] Results for 6-O-sulfatase are represented by a solid line; results for N-sulfamidase are represented by a dashed line. […] Log scale for inhibitor concentration, [I]. […] Relative activities (% desulfation) were measured over a pH range of 4-8 using three buffers: sodium acetate (●), MES (◯) and MOPS (▴).
Open bars (no divalent metals added); black bars (1 mM EDTA added); light gray bars (1 mM divalent metal); stippled gray bars (5 mM divalent metal). […] Enzyme kinetics were measured for the 6-O-sulfatase (FIG. 8C) and N-sulfamidase (FIG. 8D) as described in Materials and Methods at varying concentrations of Ca^+2 or in the presence of 1 mM EDTA. Substrate saturation plots were fitted to pseudo first-order Michaelis-Menten kinetics by non-linear regression analyses. 0.5 mM Ca^+2 (●), 1 mM Ca^+2 (◯), 5 mM Ca^+2 (▪), 1 mM EDTA (Δ).
Indirect measurement of enzyme activity was also made using a fluorimetrically-based plate assay in which the prerequisite desulfation of the appropriate glucopyranoside 1→4 methlybelliferone substrate by either the 6-O-sulfatase or N-sulfamidase was coupled to the glucosidase-mediated hydrolysis of the stereo-specific 1→4 glycosidic linkage between the pyranose ring and the adjoining fluorophore. Release of the free fluorophore (4-MU) was monitored spectroscopically as described above for the arylsulfatase assay using 4-MU sulfate. The two sulfatase assays differed in the choice of substrate in accordance to their specificity as well as the glucosidase added during the second, rate-limiting step. […] Reaction conditions were optimized to satisfy three related criteria: 1) linear readout of fluorescent signal which is directly proportional to sulfatase activity; 2) quantitative release of 4-MU by glucosidase activity under every biochemical condition examined and; 3) negligible fluorescent quenching of the free chromophore. […]

[2] = target: T2, Flavobacterium heparinum N-sulfamidase (ORF C), recombinant, NH2-terminal truncation lacking signal sequence, SEQ ID NO: 4 (Pedobacter heparinus, UniProt C6Y1N3); experiment: Inhibition of N-sulfamidase activity (sulfate, phosphate, chelators); format: biochemical
T2 construct: E. coli BL21(DE3), N-terminal 6xHis removed by thrombin
T2 sequence (C6Y1N3 entry or part of it): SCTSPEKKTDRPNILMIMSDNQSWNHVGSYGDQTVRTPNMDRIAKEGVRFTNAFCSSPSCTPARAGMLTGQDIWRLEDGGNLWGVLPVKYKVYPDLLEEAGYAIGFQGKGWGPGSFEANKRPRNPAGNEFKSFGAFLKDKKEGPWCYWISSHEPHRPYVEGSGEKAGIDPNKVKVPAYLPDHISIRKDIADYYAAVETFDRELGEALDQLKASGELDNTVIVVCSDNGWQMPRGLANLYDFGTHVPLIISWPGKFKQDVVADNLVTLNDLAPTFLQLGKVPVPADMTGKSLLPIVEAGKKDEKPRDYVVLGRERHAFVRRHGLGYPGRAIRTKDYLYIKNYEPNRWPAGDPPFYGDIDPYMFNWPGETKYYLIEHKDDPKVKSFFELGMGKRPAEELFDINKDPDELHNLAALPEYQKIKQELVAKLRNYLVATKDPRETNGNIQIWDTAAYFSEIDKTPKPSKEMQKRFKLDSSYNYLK
Procedure: Results are normalized to 0.0 M NaCl added (which is shown as 100%). […] Relative activities (% desulfation) were measured over a pH range of 4-8 using three buffers: sodium acetate (●), MES (◯) and MOPS (▴).
Enzyme kinetics were measured for the 6-O-sulfatase (FIG. 8C) and N-sulfamidase (FIG. 8D) as described in Materials and Methods at varying concentrations of Ca^+2 or in the presence of 1 mM EDTA. Substrate saturation plots were fitted to pseudo first-order Michaelis-Menten kinetics by non-linear regression analyses.
Indirect measurement of enzyme activity was also made using a fluorimetrically-based plate assay in which the prerequisite desulfation of the appropriate glucopyranoside 1→4 methlybelliferone substrate by either the 6-O-sulfatase or N-sulfamidase was coupled to the glucosidase-mediated hydrolysis of the stereo-specific 1→4 glycosidic linkage between the pyranose ring and the adjoining fluorophore. Release of the free fluorophore (4-MU) was monitored spectroscopically as described above for the arylsulfatase assay using 4-MU sulfate. The two sulfatase assays differed in the choice of substrate in accordance to their specificity as well as the glucosidase added during the second, rate-limiting step. For the 6-O-sulfatase, the hydrolysis of the substrate 4-MU-β-D-GlcNAc,6S at the 6-OH position was coupled to β-glucosidase purified from sweet almonds (MP Biomedicals, Solon, Ohio, Catalog No. 195197). Likewise, N-sulfamidase hydrolysis of 4-MU-α-D-GlcNS at the 2-amino position was coupled to α-glucosidase (MP Biomedicals, Catalog No. 153487). […] The presumption of the first (sulfatase) activity being the rate-limiting step was established experimentally. Reaction conditions were optimized to satisfy three related criteria: 1) linear readout of fluorescent signal which is directly proportional to sulfatase activity; 2) quantitative release of 4-MU by glucosidase activity under every biochemical condition examined and; 3) negligible fluorescent quenching of the free chromophore.
Coupled N-sulfamidase assay was generally described for the 6-O-sulfatase, but with the following modifications: 4-MU-GlcNS as substrate, 50 mM sodium acetate at pH 6.0 (instead of 5.5) and 1 μM enzyme. For the second enzyme step, 5 units of α-glucosidase were added. Enzyme incubation was carried out for 22 hours at 37° C. […] All other reaction conditions were as described for the coupled 6-O-sulfatase/β-glucosidase assay.
Having identified chromogenic substrates for each recombinant sulfatase, these substrates were also used to further develop a fluorescence-based plate assay as the means to define the optimal in vitro reaction conditions for each sulfatase.

Compound: O=S(=O)(O)O [sulfate]
- IC50 ([1]; normalized to 0 sulfate or phosphate added, read-out: concentration for 50% inhibition of 6-O-sulfatase activity): ~20 mM
- inhibition of N-sulfamidase by sulfate or phosphate [2]: largely uninhibited; also recorded: not apparently inhibited

Compound: phosphate
- inhibition of N-sulfamidase by sulfate or phosphate [2]: largely uninhibited; also recorded: not apparently inhibited

Compound: O=C(O)CN(CCN(CC(=O)O)CC(=O)O)CC(=O)O [EDTA, ethylenediaminetetracetic acid]
- 6-O-sulfatase activity in the presence of EDTA ([1]; 1 mM EDTA): somewhat active
- N-sulfamidase activity in the presence of EDTA ([2]; 1 mM EDTA): lack of activity

Compound: O=C(O)CN(CCOCCOCCN(CC(=O)O)CC(=O)O)CC(=O)O [EGTA]
- effect on 6-O-sulfatase specific activity ([1]; EGTA, same conditions as N-sulfamidase (5 mM Ca^2+)): no appreciable effect
